# Assay results taken from article PMC5915743, “Screening of a Novel Fragment Library with Functional Complexity against Mycobacterium tuberculosis InhA” (Chemmedchem, 2018).
# Target: T1, Mycobacterium tuberculosis InhA (Mycobacterium tuberculosis, UniProt P9WGR1)
# Test: surface plasmon resonance, equilibrium
# Assay type: binding
# Conditions: read-out: SPR pK d ^[f] (converted)
# Text: surface plasmon resonance, equilibrium on Mycobacterium tuberculosis InhA
# T1 sequence (P9WGR1 whole entry, looked up): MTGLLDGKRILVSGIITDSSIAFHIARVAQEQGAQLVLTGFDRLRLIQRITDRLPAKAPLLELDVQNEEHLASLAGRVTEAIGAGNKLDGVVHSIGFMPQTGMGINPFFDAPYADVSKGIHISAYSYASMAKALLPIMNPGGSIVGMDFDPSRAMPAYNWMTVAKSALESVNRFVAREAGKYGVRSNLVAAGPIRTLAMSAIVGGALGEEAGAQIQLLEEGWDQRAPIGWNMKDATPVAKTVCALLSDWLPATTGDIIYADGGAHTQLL
row,SMILES,Kd [µM]
1,"Cc1cc(=O)c(C2CCN(c3ncccn3)CC2)c(C)[nH]1 [compound 41, 41]",6.31
2,"Cc1ccn(C(C)c2nnc(Nc3ccn(Cc4c(F)cccc4Cl)n3)s2)n1 (stereo not shown) [compound 45, 45]",0.01
3,"Cc1cc(N)n(Cc2ccc(C(=O)NCc3ccc(F)cc3Cl)cc2)n1 [compound 46, 46]",0.501
4,"Cc1cc(N)n(Cc2ccccc2)n1 [compound 9, 9]",501
5,"Cc1cc(=O)c(-c2ccccc2)c(C)[nH]1 [compound 40, 40]",25.1
6,"Cc1cncc(CNC(=O)NC2CCCCC2)c1 [compound 38, 38]",631
7,"CC(C)Cc1cc(O)c(C2CCN(c3ncccn3)CC2)c(=O)[nH]1 [compound 43, 43]",200
8,"Cc1cc(N)n(Cc2nnc(Nc3ccn(Cc4c(F)cccc4Cl)n3)s2)n1 [compound 47, 47]",0.0794
9,"Cc1cncc(CNC(=O)NC2CCN(c3ncccn3)CC2)c1 [compound 39, 39]",20

# Target: T1, Mycobacterium tuberculosis InhA
# Test: STD 1H NMR
# Assay type: binding
# Conditions: NADH-bound InhA; co-crystallised with ligands
row,SMILES,STD 1H NMR
1,NC(=O)C1=CN([C@@H]2O[C@H](COP(=O)(O)OP(=O)(O)OC[C@H]3O[C@@H](n4cnc5c(N)ncnc54)[C@H](O)[C@@H]3O)[C@@H](O)[C@H]2O)C=CC1 [NADH],NADH binding was also observed in the STD‐NMR spectra

# Target: T1, Mycobacterium tuberculosis InhA
# Test: InhA biochemical inhibition assay
# Conditions: read-out: InhA pIC50 ^[a][e] (% 500 μM) (converted)
# Text: InhA biochemical inhibition assay on Mycobacterium tuberculosis InhA
row,SMILES,IC50 [µM]
1,"Cc1cc(=O)c(C2CCN(c3ncccn3)CC2)c(C)[nH]1 [compound 41, 41]",1
2,"Cc1cc(=O)c(-c2ccccc2)c(C)[nH]1 [compound 40, 40]",15.8
3,"Cc1cncc(CNC(=O)NC2CCCCC2)c1 [compound 38, 38]",100
4,"OCc1ccc(Cn2cccn2)cc1 [compound 4, 4]",> 1000
5,"O=C(CCc1cccnc1)NC1CCN(c2ncccn2)CC1 [compound 36, 36]",> 1000
6,"CC(C)Cc1cc(O)c(C2CCN(c3ncccn3)CC2)c(=O)[nH]1 [compound 43, 43]",6.31
7,"CCOC(=O)[C@@H]1CCc2nc(C)sc2C1 [compound 22, 22]",794

# Same assay, conditions: tested up to 1 mM
row,SMILES,InhA pIC50 ^[a][e] (% 500 μM)
1,"Cc1cc(N)n(Cc2ccc(C(=O)NCc3ccc(F)cc3Cl)cc2)n1 [compound 46, 46]",6.3±0.25
2,"Cc1cc(N)n(Cc2ccccc2)n1 [compound 9, 9]",3.4±0.23
3,"O=C(NCc1cccnc1)NC1CCN(c2ncccn2)CC1 [compound 37, 37]",4.1±0.06
4,"O=c1[nH]c(CC2CCCCC2)cc(O)c1C1CCN(c2ncccn2)CC1 [compound 42, 42]",6.5±0.03
5,"Cc1cc(N)n(Cc2nnc(Nc3ccn(Cc4c(F)cccc4Cl)n3)s2)n1 [compound 47, 47]",7.3±0.20
6,"Cc1cncc(CNC(=O)NC2CCN(c3ncccn3)CC2)c1 [compound 39, 39]",5.0±0.14

# Same assay, conditions: tested up to 1 mM; published lead, not marked as earlier data in table
row,SMILES,InhA pIC50 ^[a][e] (% 500 μM)
1,"Cc1ccn(C(C)c2nnc(Nc3ccn(Cc4c(F)cccc4Cl)n3)s2)n1 (stereo not shown) [compound 45, 45]",8.1±0.27
2,"Cc1cc(C)n(Cc2ccc(C(=O)NCc3ccc(F)cc3Cl)cc2)n1 [compound 44, 44]",6.9±0.07
